Test results taken from paper PMC12383646, “Identification of Two Critical Contact Residues in a Pathogenic Epitope from Tetranectin for Monoclonal Antibody Binding and Preparation of Single-Chain Variable Fragments” (Biomolecules, 2025).
Values belong to the sequence of their own block, whether it stands above or below them.

Legend:
12F1 mAb [1] = experiment: Indirect ELISA (iELISA) of 12F1 mAb on coated P5-5-BSA and P5-5 mutant-BSA; format: binding, mouse; conditions: peptide-BSA conjugate coated at 10 µg/mL; 12F1 mAb 1:2000; compared with WT P5-5 and negative control BSA; six repeated experiments (Figure 4)
Method: The P5-5 and mutants were conjugated to BSA by the EDC conjugating method. Firstly, the P5-5 and other 9 mutant peptide solutions (4 mg/mL in 0.1 M MES buffer, pH 4.7) were separately mixed with BSA solution (10 mg/mL in 0.1 M MES buffer, pH 4.7). Then, the reaction mixtures were all supplemented with 100 μL of EDC solution (10 mg/mL in deionized water) and incubated at 25 °C for 2 h to facilitate conjugation. The haptens were coupled to BSA at a molar ratio of 10:1 [14]. After a two-hour reaction, the resulting mixtures were subjected to dialysis against 0.01 M phosphate-buffered saline (PBS, pH 7.4) for 48 h. The final products were then stored at −20 °C for the following applications. The P5-5 and mutant conjugates were examined using native gel electrophoresis, and the concentration of the complete antigen was determined using the BCA protein assay kit.
Indirect ELISA (iELISA): To identify the key binding epitopes of the prepared mAb to the P5-5 epitope, P5-5-BSA, and P5-5 mutant-BSA, the antigens were coated onto 96-well plates at a concentration of 10 µg/mL [15]. Subsequently, purified 12F1 mAb diluted at 1:2000 in blocking buffer was added to the wells after blocking and washing. Following another washing step, goat anti-mouse IgG-HRP at a 1:5000 dilution in blocking buffer was added and incubated at 37 °C for 1 h. To commence color development, 100 μL of 3,3,5,5-Tetramethylbenzidine (TMB) solution was added to each well, followed by 100 μL of 2 M H2SO4. The absorbance at 450 nm was measured using a microplate reader.

12F1 mAb [2] = experiment: Indirect competitive ELISA (ic-ELISA) of P5-5 and mutant peptides against 12F1 mAb; format: binding, mouse; conditions: coating P5-5-OVA 5 μg/mL; free peptide competitor 0.61 ng/mL-20 μg/mL; pre-mixed with 12F1 mAb 37 °C 30 min; compared with WT P5-5 (Figure 5)
Method: Indirect competitive ELISA (ic-ELISA): the inhibition ability of 12F1 mAb against P5-5 and its mutants was assessed through icELISA [16]. A coating antigen P5-5-OVA solution at a concentration of 5 μg/mL was prepared and dispensed (100 μL) into each well of a 96-well ELISA plate. The plates were then left to incubate at 4 °C overnight. Following washing, 5% (w/v) PBSM was added to each well and incubated at 37 °C for 2 h. The synthesized peptides of P5-5 and its variants were prepared as 1 mg/mL stock solution (dissolved in 0.01M PBS, pH 7.4). These peptides were then serially diluted in PBSM to concentrations of 20 μg/mL, 10 μg/mL, 5 μg/mL, 2.5 μg/mL, 1.25 μg/mL, 625 ng/mL, 312.5 ng/mL, 156.25 ng/mL, 78.13 ng/mL, 39.06 ng/mL, 19.53 ng/mL, 9.77 ng/mL, 4.88 ng/mL, 2.44 ng/mL, 1.22 ng/mL, and 0.61 ng/mL for the competitor in the ic-ELISA assay. Subsequently, 12F1 mAb was mixed thoroughly with the diluted solutions of P5-5 and its mutants at equal volume at 37 °C for 30 min incubation and reaction. Following this, each well was impressed by 100 μL of the mixture, which was then incubated at 37 °C for one hour. The succeeding stages, which included the addition of HRP-goat anti-mouse serum, TMB substrate solution, and stop solution, were carried out as described earlier. The measurement of the OD value was then taken under 450 nm. The IC50 values of the 12F1 monoclonal antibody against synthesized P5-5 and nine other mutant peptides were determined using the four-parameter logistic equations in Prism 9.0 GraphPad software (version 9.0 GraphPad Software), following the established methodology.

Sequence: NDALYEYARQ [L8A, P5-5 mutant, position 8 (Leu) mutated to alanine]
binding activity of 12F1 mAb (indirect ELISA, OD 450 nm) (12F1 mAb [1]): significantly reduced to levels similar to the negative control
antigen inhibitory capability / antibody binding in ic-ELISA (12F1 mAb [2]): entirely lost their ability to bind antibodies

Sequence: NDAAYEYLRQ [L4A, P5-5 mutant, position 4 (Leu) mutated to alanine]
binding activity of 12F1 mAb (indirect ELISA, OD 450 nm) (12F1 mAb [1]): significantly reduced to levels similar to the negative control
antigen inhibitory capability / antibody binding in ic-ELISA (12F1 mAb [2]): entirely lost their ability to bind antibodies

Sequence: NAALYEYLRQ [DA2, P5-5 mutant, position 2 (Asp) mutated to alanine]
binding activity of 12F1 mAb (indirect ELISA, OD 450 nm) (12F1 mAb [1]): weak binding signals
antigen inhibitory capability / antibody binding in ic-ELISA (12F1 mAb [2]): significantly reduced compared to the WT P5-5

More lines, main results first:

binding activity of 12F1 mAb (indirect ELISA, OD 450 nm) (12F1 mAb [1]): weak binding signals
Sequence: NDALYEALRQ [Y7A, P5-5 mutant, position 7 (Tyr) mutated to alanine]
antigen inhibitory capability / antibody binding in ic-ELISA (12F1 mAb [2]): significantly reduced compared to the WT P5-5

binding activity of 12F1 mAb (indirect ELISA, OD 450 nm) (12F1 mAb [1]): weak binding signals
Sequence: NDALAEYLRQ [Y5A, P5-5 mutant, position 5 (Tyr) mutated to alanine]
antigen inhibitory capability / antibody binding in ic-ELISA (12F1 mAb [2]): significantly reduced compared to the WT P5-5

binding activity of 12F1 mAb (indirect ELISA, OD 450 nm) (12F1 mAb [1]): weak binding signals
Sequence: NDALYAYLRQ [E6A, P5-5 mutant, position 6 (Glu) mutated to alanine]
antigen inhibitory capability / antibody binding in ic-ELISA (12F1 mAb [2]): significantly reduced compared to the WT P5-5
